Measured values: patent US20080194585A1, “Fungicidal Pyrazine Derivatives” (priority 2005, published 2008)
Marks after values point to notes of the source that are not given here.

Tests used:
[1] = system: fusarium graminearium; experiment: Test I: wheat head scab, preventive spray on wheat seedlings; settings: 100 = 100% disease control, 0 = no control
Description: (the causal agent of wheat head scab) and incubated in a saturated atmosphere at 20° C. for 72 h, and then moved to a growth chamber at 22° C. for 5 days, after which disease ratings were made.

[2] = system: Plasmopara viticola; experiment: Test D: grape downy mildew, spray after inoculation of grape seedlings; type: in vivo; settings: 100 = 100% disease control
Description: Upon removal, disease ratings were made. […] A dash (-) indicates no test results.

[3] = system: Septoria nodorum; experiment: Test H: wheat glum blotch, preventive spray on wheat seedlings; settings: 40 ppm (marked *); 100 = 100% disease control, 0 = no control
Description: (the causal agent of wheat glum blotch) and incubated in a saturated atmosphere at 20° C. for 48 h, and then moved to a growth chamber at 22° C. for 5 days, after which disease ratings were made.

[4] = system: Septoria tritici; experiment: Test J: wheat leaf blotch, preventive spray on wheat seedlings; type: in vivo; settings: 40 ppm (marked *); 100 = 100% disease control, 0 = no control
Description: A dash (-) indicates no test results.

[5] = system: Colletotrichum orbiculare; experiment: Test B: cucumber Colletotrichum anthracnose, preventive spray on cucumber seedlings; settings: 40 ppm (marked *); 100 = 100% disease control, 0 = no control
[6] = system: Botrytis cinerea; experiment: Test E: tomato botrytis, preventive spray on tomato seedlings; settings: 40 ppm (marked *); 100 = 100% disease control, 0 = no control
[7] = system: Phytophthora infestans; experiment: whole plant or invertebrate; type: in vivo; settings: 100 = 100% disease control, 0 = no control
[8] = system: Pythium aphanidermatum; experiment: Test A: bluegrass pythium blight, preventive spray on bluegrass seedlings; settings: 100 = 100% disease control, 0 = no control
[9] = system: Puccinia recondita f. sp. tritici; experiment: Test K: wheat leaf rust, preventive spray on wheat seedlings; settings: 40 ppm (marked *); 100 = 100% disease control, 0 = no control
[10] = system: Erysiphe graminis f. sp. tritici; experiment: Test L: wheat powdery mildew, preventive spray on wheat seedlings; settings: 40 ppm (marked *); 100 = 100% disease control, 0 = no control
[11] = system: Rhizoctonia oryzae; experiment: Test G: turf brown patch, preventive spray on creeping bent grass seedlings; settings: 40 ppm (marked *); 100 = 100% disease control, 0 = no control
Description: (the causal agent of turf brown patch) and incubated in a saturated atmosphere at 27° C. for 24 h, and then moved to a growth chamber at 27° C. for 5 days, after which disease ratings were made.

[12] = 40 ppm (marked *), 0 = no control

In the case of `O=c1c(-n2cccn2)nc(Cl)c(-c2c(F)cc(F)cc2F)n1-c1ccc(Br)cc1` [compound 352], the “Test I disease control rating” value ([1]; 200 ppm) is reported as 63%, the “Test D disease control rating” value ([2]; 200 ppm, 0 = no control) is reported as 0% and the “Test H disease control rating” value [3] is reported as 97* %. The “Test J disease control rating” value [4] was 100* %, the “Test B disease control rating” value [5] was 99* % and the “Test E disease control rating” value [6] was 99* %. For the same compound, the “Test F disease control rating” value ([7]; 200 ppm) was 0%, the “Test A disease control rating” value ([8]; 200 ppm) was 0% and the “Test K disease control rating” value [9] was 99* %. The “Test L disease control rating” value [10] was 81* % and the “Test G disease control rating” value [11] was 31* %.

With `O=c1c(-n2cccn2)nc(Cl)c(-c2c(F)cc(F)cc2F)n1-c1cccc(C(F)(F)F)c1` [compound 353] the “Test I disease control rating” value ([1]; 200 ppm) was 0%, the “Test D disease control rating” value ([2]; 200 ppm, 0 = no control) was 0% and the “Test H disease control rating” value [3] was 98* %. For the same compound, the “Test J disease control rating” value [4] was 100* %, the “Test B disease control rating” value [5] was 16* % and the “Test E disease control rating” value [6] was 98* %. The “Test F disease control rating” value ([7]; 200 ppm) was 0%, the “Test A disease control rating” value ([8]; 200 ppm) was 0% and the “Test K disease control rating” value [9] was 91* %. The “Test L disease control rating” value [10] was 79* % and the “Test G disease control rating” value [11] was 0* %.

In the case of `O=c1c(-n2cccn2)nc(Cl)c(-c2c(F)cc(F)cc2F)n1-c1ccc(C(F)(F)F)cc1` [compound 354], the “Test I disease control rating” value ([1]; 200 ppm) is reported as 0%, the “Test D disease control rating” value ([2]; 200 ppm, 0 = no control) is reported as 0% and the “Test H disease control rating” value [3] is reported as 91* %. For the same compound, the “Test J disease control rating” value [4] was 100* %, the “Test B disease control rating” value [5] was 9* % and the “Test E disease control rating” value [6] was 95* %. The “Test F disease control rating” value ([7]; 200 ppm) was 0%, the “Test A disease control rating” value ([8]; 200 ppm) was 0% and the “Test K disease control rating” value [9] was 97* %. The “Test L disease control rating” value [10] was 48* % and the “Test G disease control rating” value [11] was 47* %.

`Cc1nc(-c2ccccn2)c(=O)n(-c2ccccc2)c1-c1c(F)cccc1F` [compound 359] was tested, and the “Test I disease control rating” value ([1]; 40 ppm (marked *)) was 65* %, the “Test D disease control rating” value [2, 12] was 8* % and the “Test H disease control rating” value [3] was 0* %. For the same compound, the “Test J disease control rating” value [4] was 85* %, the “Test B disease control rating” value [5] was 0* % and the “Test E disease control rating” value [6] was 0* %. The “Test F disease control rating” value ([7]; 40 ppm (marked *)) was 0* %, the “Test A disease control rating” value ([8]; 40 ppm (marked *)) was 81* % and the “Test K disease control rating” value [9] was 0* %. The “Test L disease control rating” value [10] was 0* % and the “Test G disease control rating” value [11] was 0* %.

With `O=c1c(-n2cccn2)nc(Cl)c(-c2c(F)cccc2F)n1-c1ccccc1Br` [compound 360] the “Test I disease control rating” value ([1]; 200 ppm) was 86%, the “Test D disease control rating” value ([2]; 200 ppm, 0 = no control) was 0% and the “Test H disease control rating” value [3] was 100* %. The “Test J disease control rating” value [4] was 100* %, the “Test B disease control rating” value [5] was 0* % and the “Test E disease control rating” value [6] was 99* %. The “Test F disease control rating” value ([7]; 200 ppm) was 0%, the “Test A disease control rating” value ([8]; 200 ppm) was 0% and the “Test K disease control rating” value [9] was 100* %. For the same compound, the “Test L disease control rating” value [10] was 99* % and the “Test G disease control rating” value [11] was 65* %.

In the case of `O=c1c(-n2cccn2)nc(Cl)c(-c2c(F)cccc2F)n1C1CC1` [compound 361], the “Test I disease control rating” value ([1]; 200 ppm) is reported as 0%, the “Test D disease control rating” value ([2]; 200 ppm, 0 = no control) is reported as 0% and the “Test H disease control rating” value [3] is reported as 98* %. The “Test J disease control rating” value [4] was 3* %, the “Test B disease control rating” value [5] was 0* % and the “Test E disease control rating” value [6] was 92* %. The “Test F disease control rating” value ([7]; 200 ppm) was 0%, the “Test A disease control rating” value ([8]; 200 ppm) was 0% and the “Test K disease control rating” value [9] was 83* %. For the same compound, the “Test L disease control rating” value [10] was 0* % and the “Test G disease control rating” value [11] was 31* %.

`O=c1c(-n2cccn2)nc(Cl)c(-c2c(F)cccc2F)n1C1CC1c1ccccc1` (centres unmarked) [compound 362] was tested, and the “Test I disease control rating” value ([1]; 200 ppm) was 0%, the “Test D disease control rating” value ([2]; 200 ppm, 0 = no control) was 0% and the “Test H disease control rating” value [3] was 0* %. The “Test J disease control rating” value [4] was 0* %, the “Test B disease control rating” value [5] was 0* % and the “Test E disease control rating” value [6] was 0* %. For the same compound, the “Test F disease control rating” value ([7]; 200 ppm) was 0%, the “Test A disease control rating” value ([8]; 200 ppm) was 0% and the “Test K disease control rating” value [9] was 0* %. For the same compound, the “Test L disease control rating” value [10] was 0* % and the “Test G disease control rating” value [11] was 0* %.

`O=c1c(-n2cccn2)nc(Cl)c(-c2c(F)cccc2F)n1C1CCC1` [compound 363] was tested, and the “Test I disease control rating” value ([1]; 200 ppm) was 0%, the “Test D disease control rating” value ([2]; 200 ppm, 0 = no control) was 0% and the “Test H disease control rating” value [3] was 100* %. The “Test J disease control rating” value [4] was 59* %, the “Test B disease control rating” value [5] was 0* % and the “Test E disease control rating” value [6] was 99* %. The “Test F disease control rating” value ([7]; 200 ppm) was 0%, the “Test A disease control rating” value ([8]; 200 ppm) was 0% and the “Test K disease control rating” value [9] was 100* %. For the same compound, the “Test L disease control rating” value [10] was 99* % and the “Test G disease control rating” value [11] was 93* %.

For `CC(C)Cn1c(-c2c(F)cccc2F)c(Cl)nc(-c2cnccn2)c1=O.Cl` [compound 364], the “Test I disease control rating” value ([1]; 200 ppm) was 82%, the “Test D disease control rating” value ([2]; 200 ppm, 0 = no control) was 0% and the “Test H disease control rating” value [3] was 0* %. The “Test J disease control rating” value [4] was 0* %, the “Test B disease control rating” value [5] was 0* % and the “Test E disease control rating” value [6] was 99* %. For the same compound, the “Test F disease control rating” value ([7]; 200 ppm) was 0%, the “Test A disease control rating” value ([8]; 200 ppm) was 0% and the “Test K disease control rating” value [9] was 92* %. For the same compound, the “Test L disease control rating” value [10] was 88* % and the “Test G disease control rating” value [11] was 16* %.

`O=c1c(-n2cccn2)nc(Cl)c(-c2c(F)cc(F)cc2F)n1-c1cccc(Cl)c1` [compound 373] was tested, and the “Test I disease control rating” value ([1]; 40 ppm (marked *)) was 78* %, the “Test D disease control rating” value [2, 12] was 0* % and the “Test H disease control rating” value [3] was 99* %. For the same compound, the “Test J disease control rating” value [4] was 96* %, the “Test B disease control rating” value [5] was 99* % and the “Test E disease control rating” value [6] was 100* %. The “Test F disease control rating” value ([7]; 40 ppm (marked *)) was 0* %, the “Test A disease control rating” value ([8]; 40 ppm (marked *)) was 0* % and the “Test K disease control rating” value [9] was 100* %. For the same compound, the “Test L disease control rating” value [10] was 100* % and the “Test G disease control rating” value [11] was 93* %.

`Cc1ccn(-c2nc(Cl)c(-c3c(F)cc(F)cc3F)n(-c3cccc(Cl)c3)c2=O)n1` [compound 374] was tested, and the “Test I disease control rating” value ([1]; 40 ppm (marked *)) was 0* %, the “Test D disease control rating” value [2, 12] was 0* % and the “Test H disease control rating” value [3] was 100* %. The “Test J disease control rating” value [4] was 100* %, the “Test B disease control rating” value [5] was 100* % and the “Test E disease control rating” value [6] was 99* %. The “Test F disease control rating” value ([7]; 40 ppm (marked *)) was 0* %, the “Test A disease control rating” value ([8]; 40 ppm (marked *)) was 0* % and the “Test K disease control rating” value [9] was 100* %. The “Test L disease control rating” value [10] was 100* % and the “Test G disease control rating” value [11] was 78* %.

For `O=c1c(-n2cccn2)nc(Cl)c(-c2c(F)cc(F)cc2F)n1-c1ccccc1Cl` [compound 375], the “Test I disease control rating” value ([1]; 40 ppm (marked *)) was 80* %, the “Test D disease control rating” value [2, 12] was 0* % and the “Test H disease control rating” value [3] was 100* %. For the same compound, the “Test J disease control rating” value [4] was 100* %, the “Test B disease control rating” value [5] was 100* % and the “Test E disease control rating” value [6] was 99* %. For the same compound, the “Test F disease control rating” value ([7]; 40 ppm (marked *)) was 0* %, the “Test A disease control rating” value ([8]; 40 ppm (marked *)) was 0* % and the “Test K disease control rating” value [9] was 100* %. The “Test L disease control rating” value [10] was 100* % and the “Test G disease control rating” value [11] was 95* %.

For `Cc1ccn(-c2nc(Cl)c(-c3c(F)cc(F)cc3F)n(-c3ccccc3Cl)c2=O)n1` [compound 376], the “Test I disease control rating” value ([1]; 40 ppm (marked *)) was 0* %, the “Test D disease control rating” value ([2]; 200 ppm, 0 = no control relative to controls) was 40% and the “Test H disease control rating” value [3] was 100* %. The “Test J disease control rating” value [4] was 100* %, the “Test B disease control rating” value [5] was 100* % and the “Test E disease control rating” value [6] was 99* %. The “Test F disease control rating” value ([7]; 40 ppm (marked *)) was 0* %, the “Test A disease control rating” value ([8]; 40 ppm (marked *)) was 0* % and the “Test K disease control rating” value [9] was 100* %. The “Test L disease control rating” value [10] was 100* % and the “Test G disease control rating” value [11] was 98* %.
